Columns and labels:
Assay in all cases: relative viability (nuclei count vs DMSO), 5 days (fraction); higher = more cells survive
ABC-1 = test system: ABC-1
Summary of the method: (§1)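 Cells from lung cancer lines were seeded into 1536-well plates and, one day later, dosed by pin tool. Treatments were either a single drug or a fixed dose of an anchor drug with five library-drug doses (not always all listed) in √10 steps. After 5 days, nuclei were stained in a one-step fixation (final 0.05% Triton X-100, 1% formaldehyde, 1 ug/ml Hoechst) and counted on 4× images, and relative viability is the treated-to-vehicle nuclei ratio, as the median of duplicate plates.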

CAL-12T = test system: CAL-12T
Summary of the method: as §1

COR-L 105 = test system: COR-L 105
Summary of the method: as §1

ChaGo-K-1 = test system: ChaGo-K-1
Summary of the method: as §1

EMC-BAC-2 = test system: EMC-BAC-2
Summary of the method: as §1

EPLC-272H = test system: EPLC-272H
Summary of the method: as §1

HCC-15 = test system: HCC-15
Summary of the method: as §1

HCC-78 = test system: HCC-78
Summary of the method: as §1

HOP-62 = test system: HOP-62
Summary of the method: as §1

LXF-289 = test system: LXF-289
Summary of the method: as §1

NCI-H1666 = test system: NCI-H1666
Summary of the method: as §1

NCI-H1755 = test system: NCI-H1755
Summary of the method: as §1

NCI-H1915 = test system: NCI-H1915
Summary of the method: as §1

NCI-H1975 = test system: NCI-H1975
Summary of the method: as §1

NCI-H2023 = test system: NCI-H2023
Summary of the method: as §1

NCI-H2085 = test system: NCI-H2085
Summary of the method: as §1

NCI-H2126 = test system: NCI-H2126
Summary of the method: as §1

NCI-H3122 = test system: NCI-H3122
Summary of the method: as §1

NCI-H322M = test system: NCI-H322M
Summary of the method: as §1

NCI-H358 = test system: NCI-H358
Summary of the method: as §1

NCI-H441 = test system: NCI-H441
Summary of the method: as §1

UMC-11 = test system: UMC-11
Summary of the method: as §1

SMILES: Nc1ccn([C@@H]2O[C@H](CO)[C@@H](O)[C@@H]2O)c(=O)n1 [Cytarabine] + O=C(CCCCCCC(=O)Nc1ccccc1)NO [Vorinostat] (partner 1 µM)
- relative viability (ABC-1; first compound 0.005 µM): 0.934
- relative viability (ABC-1; first compound 0.01581 µM): 0.995
- relative viability (ABC-1; first compound 0.05 µM): 0.972
- relative viability (ABC-1; first compound 0.1581 µM): 0.933
- relative viability (ABC-1; first compound 0.5 µM): 0.744
- relative viability (CAL-12T; first compound 0.005 µM): 0.53
- relative viability (CAL-12T; first compound 0.01581 µM): 0.68
- relative viability (CAL-12T; first compound 0.05 µM): 0.739
- relative viability (CAL-12T; first compound 0.1581 µM): 0.477
- relative viability (CAL-12T; first compound 0.5 µM): 0.27
- relative viability (COR-L 105; first compound 0.005 µM): 0.816
- relative viability (COR-L 105; first compound 0.01581 µM): 0.79
- relative viability (COR-L 105; first compound 0.05 µM): 0.55
- relative viability (COR-L 105; first compound 0.1581 µM): 0.583
- relative viability (COR-L 105; first compound 0.5 µM): 0.418
- relative viability (ChaGo-K-1; first compound 0.005 µM): 0.673
- relative viability (ChaGo-K-1; first compound 0.01581 µM): 0.649
- relative viability (ChaGo-K-1; first compound 0.05 µM): 0.471
- relative viability (ChaGo-K-1; first compound 0.1581 µM): 0.408
- relative viability (ChaGo-K-1; first compound 0.5 µM): 0.288
- relative viability (EMC-BAC-2; first compound 0.005 µM): 0.494
- relative viability (EMC-BAC-2; first compound 0.01581 µM): 0.448
- relative viability (EMC-BAC-2; first compound 0.05 µM): 0.165
- relative viability (EMC-BAC-2; first compound 0.1581 µM): 0.29
- relative viability (EMC-BAC-2; first compound 0.5 µM): 0.182
- relative viability (EPLC-272H; first compound 0.005 µM): 0.461
- relative viability (EPLC-272H; first compound 0.01581 µM): 0.393
- relative viability (EPLC-272H; first compound 0.05 µM): 0.398
- relative viability (EPLC-272H; first compound 0.1581 µM): 0.174
- relative viability (EPLC-272H; first compound 0.5 µM): 0.155
- relative viability (HCC-15; first compound 0.005 µM): 0.856
- relative viability (HCC-15; first compound 0.01581 µM): 0.784
- relative viability (HCC-15; first compound 0.05 µM): 0.775
- relative viability (HCC-15; first compound 0.1581 µM): 0.676
- relative viability (HCC-15; first compound 0.5 µM): 0.647
- relative viability (HCC-78; first compound 0.005 µM): 0.498
- relative viability (HCC-78; first compound 0.01581 µM): 0.471
- relative viability (HCC-78; first compound 0.05 µM): 0.402
- relative viability (HCC-78; first compound 0.1581 µM): 0.348
- relative viability (HCC-78; first compound 0.5 µM): 0.263
- relative viability (HOP-62; first compound 0.005 µM): 0.633
- relative viability (HOP-62; first compound 0.01581 µM): 0.406
- relative viability (HOP-62; first compound 0.05 µM): 0.437
- relative viability (HOP-62; first compound 0.1581 µM): 0.115
- relative viability (HOP-62; first compound 0.5 µM): 0.0936
- relative viability (LXF-289; first compound 0.005 µM): 0.736
- relative viability (LXF-289; first compound 0.01581 µM): 0.856
- relative viability (LXF-289; first compound 0.05 µM): 0.639
- relative viability (LXF-289; first compound 0.1581 µM): 0.464
- relative viability (LXF-289; first compound 0.5 µM): 0.27
- relative viability (NCI-H1666; first compound 0.005 µM): 0.948
- relative viability (NCI-H1666; first compound 0.01581 µM): 0.843
- relative viability (NCI-H1666; first compound 0.05 µM): 0.768
- relative viability (NCI-H1666; first compound 0.1581 µM): 0.733
- relative viability (NCI-H1666; first compound 0.5 µM): 0.619
- relative viability (NCI-H1755; first compound 0.005 µM): 0.823
- relative viability (NCI-H1755; first compound 0.01581 µM): 0.794
- relative viability (NCI-H1755; first compound 0.05 µM): 0.685
- relative viability (NCI-H1755; first compound 0.1581 µM): 0.502
- relative viability (NCI-H1755; first compound 0.5 µM): 0.375
- relative viability (NCI-H1915; first compound 0.005 µM): 0.477
- relative viability (NCI-H1915; first compound 0.01581 µM): 0.424
- relative viability (NCI-H1915; first compound 0.05 µM): 0.375
- relative viability (NCI-H1915; first compound 0.1581 µM): 0.318
- relative viability (NCI-H1915; first compound 0.5 µM): 0.235
- relative viability (NCI-H1975; first compound 0.005 µM): 0.572
- relative viability (NCI-H1975; first compound 0.01581 µM): 0.675
- relative viability (NCI-H1975; first compound 0.05 µM): 0.568
- relative viability (NCI-H1975; first compound 0.1581 µM): 0.429
- relative viability (NCI-H1975; first compound 0.5 µM): 0.287
- relative viability (NCI-H2023; first compound 0.005 µM): 0.434
- relative viability (NCI-H2023; first compound 0.01581 µM): 0.225
- relative viability (NCI-H2023; first compound 0.05 µM): 0.22
- relative viability (NCI-H2023; first compound 0.1581 µM): 0.101
- relative viability (NCI-H2023; first compound 0.5 µM): 0.0846
- relative viability (NCI-H2085; first compound 0.005 µM): 0.698
- relative viability (NCI-H2085; first compound 0.01581 µM): 0.79
- relative viability (NCI-H2085; first compound 0.05 µM): 0.744
- relative viability (NCI-H2085; first compound 0.1581 µM): 0.618
- relative viability (NCI-H2085; first compound 0.5 µM): 0.635
- relative viability (NCI-H2126; first compound 0.005 µM): 0.649
- relative viability (NCI-H2126; first compound 0.01581 µM): 0.681
- relative viability (NCI-H2126; first compound 0.05 µM): 0.448
- relative viability (NCI-H2126; first compound 0.1581 µM): 0.593
- relative viability (NCI-H2126; first compound 0.5 µM): 0.44
- relative viability (NCI-H3122; first compound 0.005 µM): 0.938
- relative viability (NCI-H3122; first compound 0.01581 µM): 0.914
- relative viability (NCI-H3122; first compound 0.05 µM): 0.894
- relative viability (NCI-H3122; first compound 0.1581 µM): 0.695
- relative viability (NCI-H3122; first compound 0.5 µM): 0.293
- relative viability (NCI-H322M; first compound 0.005 µM): 0.804
- relative viability (NCI-H322M; first compound 0.01581 µM): 0.785
- relative viability (NCI-H322M; first compound 0.05 µM): 0.641
- relative viability (NCI-H322M; first compound 0.1581 µM): 0.589
- relative viability (NCI-H322M; first compound 0.5 µM): 0.426
- relative viability (NCI-H358; first compound 0.005 µM): 0.632
- relative viability (NCI-H358; first compound 0.01581 µM): 0.557
- relative viability (NCI-H358; first compound 0.05 µM): 0.538
- relative viability (NCI-H358; first compound 0.1581 µM): 0.178
- relative viability (NCI-H358; first compound 0.5 µM): 0.113
- relative viability (NCI-H441; first compound 0.005 µM): 0.527
- relative viability (NCI-H441; first compound 0.01581 µM): 0.882
- relative viability (NCI-H441; first compound 0.05 µM): 0.852
- relative viability (NCI-H441; first compound 0.1581 µM): 0.398
- relative viability (NCI-H441; first compound 0.5 µM): 0.229
- relative viability (UMC-11; first compound 0.005 µM): 0.285
- relative viability (UMC-11; first compound 0.01581 µM): 0.308
- relative viability (UMC-11; first compound 0.05 µM): 0.258
- relative viability (UMC-11; first compound 0.1581 µM): 0.19
- relative viability (UMC-11; first compound 0.5 µM): 0.183
